Publication PMC3003687, “α-Galactosylceramide Analogs with Weak Agonist Activity for Human iNKT Cells Define New Candidate Anti-Inflammatory Agents” (PLoS ONE, 2010)

Legend:
human iNKT cells = conditions: cited from earlier work
hCD1d = target: T1, hCD1d (Homo sapiens, UniProt P15813); experiment: Loading of hCD1d tetramers with variable glycolipid to CD1d ratios; format: binding; conditions: 20 nM tetramers, 25 to 1000 fold molar excess of glycolipid to hCD1d, HDD3 clone
T1 construct: we generated soluble and fluorescent tetrameric hCD1d molecules loaded with each of the glycolipid analogs; made in house
Text: To characterize in more detail the iNKT cell TCR recognition of αGalCer analogs presented by human CD1d, we generated soluble and fluorescent tetrameric hCD1d molecules loaded with each of the glycolipid analogs. […] This was similar to the previously reported failure of mouse CD1d tetramer loaded with lysosulfatide to bind detectably to murine non-invariant and sulfatide specific NKT cells, despite a clear reactivity to this lipid upon presentation by APCs; [40]. […] To quantitate their binding avidities to iNKT cell TCRs, we used titration of analog-loaded hCD1d tetramers to determine equilibrium dissociation constants (KD), which are inversely proportional to avidity (Figure 3A and 3B).
Figure 3 Characterization of human iNKT cell TCR interactions with analog-loaded tetramers. (A) iNKT cell clones were stained with titrated amounts of hCD1d tetramers loaded with the indicated glycolipids (abbreviations as in legend to Figure 1), and the measured MFI values are plotted for selected glycolipids. (B) The equilibrium dissociation constants (KD, inversely proportional to TCR avidity) were determined as the concentrations of tetramers required to yield 50% of maximal binding. Data shown were obtained using the CD4^+ iNKT cell clone HDD3, and similar results (not shown) were obtained with a second CD4^+ clone (HDD11) and a CD4^−8^− double negative iNKT cell clone (HDE3). (C) Analysis of iNKT cell clones labeled with 20 nM of hCD1d tetramers which were loaded with variable excesses of analog to constant hCD1d (25 to 1000 fold molar excess of glycolipid to hCD1d protein). The measured MFI values were normalized as the percent of the maximum staining intensity obtained with each analog loaded tetramer. Data presented were generated with HDD3 (CD4+) iNKT cell clone, and similar results (not shown) were obtained with HDE3 (DN) clone.

| lipid excess at which tetramers were efficiently loaded (hCD1d) | SMILES | agonist activity for human iNKT cells (human iNKT cells) |
| --- | --- | --- |
|  | CCCCC/C=C\C/C=C\CCCCCCCCCC(=O)N[C@@H](CO[C@H]1O[C@H](CO)[C@H](O)[C@H](O)[C@H]1O)[C@H](O)[C@H](O)CCCCCCCCCCCCCC [C20:2] | strong agonist |
| 25–50 fold | CCCCCCCCCCCCCCCCCCCCCCCCCC(=O)N[C@@H](CO[C@H]1O[C@H](CO)[C@H](O)[C@H](O)[C@H]1O)[C@H](O)[C@H](O)CCCCCCCCCCCCCC [KRN7000, reference compound] |  |
